Experimental data reported in ChEMBL document CHEMBL3885861, “Open TG-GATES”.

Species: Rattus norvegicus
Experiment: Open TG-GATES - Regimen: Daily Repeat
Assay type: toxicity, organism-based, Sprague-Dawley
Design: regimen Daily Repeat, gender Male, age 6 weeks
Conditions: in vivo, po, route gavage; for GLC / IP / K / LDH / Na / PL / RALB / TBIL / TC / TG / TP / gamma-GTP / A/G / ALP / ALT / AST / BUN / CRE / Ca / Cl / DBIL: tissue Plasma; for APTT / Bas / Eos / Fbg / Hb / Ht / Lym / MCH / MCHC / MCV / Mono / Neu / PT / Plat / RBC / Ret / WBC: tissue Blood; for KIDNEY_L / KIDNEY_R / KIDNEY_TOTAL: tissue Kidney; for LIVER: tissue Liver
[1] = 10 mg/kg, […], dose level Middle, time 14 day
[2] = 10 mg/kg, […], dose level Middle, time 28 day
[3] = 30 mg/kg, 72 h, dose level High, time 3 day
[4] = 30 mg/kg, […], dose level High, time 7 day
[5] = 30 mg/kg, […], dose level High, time 14 day

Compound: CCN(CC)N=O [N-NITROSODIETHYLAMINE]
- GLC [1]: 180 mg/dL
- IP [1]: 7 mg/dL
- K [1]: 3.8 meq/L
- LDH [1]: 259 IU/L
- Na [1]: 140.2 meq/L
- PL [1]: 140.2 mg/dL
- RALB [1]: 3.4 g/dL
- TBIL [1]: 0.2 mg/dL
- TC [1]: 70.4 mg/dL
- TG [1]: 67.6 mg/dL
- TP [1]: 5.5 g/dL
- gamma-GTP [1]: 2.2 IU/L
- A/G [2]: 1.7
- ALP [2]: 1261.4 IU/L
- ALT [2]: 69 IU/L
- AST [2]: 110.4 IU/L
- BUN [2]: 15 mg/dL
- CRE [2]: 0.5 mg/dL
- Ca [2]: 9.9 mg/dL
- Cl [2]: 103.6 meq/L
- DBIL [2]: 0.1 mg/dL
- GLC [2]: 165.8 mg/dL
- IP [2]: 5.9 mg/dL
- K [2]: 3.5 meq/L
- LDH [2]: 242 IU/L
- Na [2]: 140.6 meq/L
- PL [2]: 146.2 mg/dL
- RALB [2]: 3.3 g/dL
- TBIL [2]: 0.2 mg/dL
- TC [2]: 70.8 mg/dL
- TG [2]: 79.2 mg/dL
- TP [2]: 5.3 g/dL
- gamma-GTP [2]: 3.2 IU/L
- TERMINAL_BW [3]: 209.6 g
- APTT [3]: 17.1 s
- Bas [3]: 0.6%
- Eos [3]: 1.4%
- Fbg [3]: 211.6 mg/dL
- Hb [3]: 15.6 g/dL
- Ht [3]: 44.7%
- Lym [3]: 81.2%
- MCH [3]: 21.3 pg
- MCHC [3]: 34.8%
- MCV [3]: 61.1 fL
- Mono [3]: 3.4%
- Neu [3]: 12.6%
- PT [3]: 14.2 s
- Plat [3]: 134.9 x10_4/uL
- RBC [3]: 732.4 x10_4/ul
- Ret [3]: 4%
- WBC [3]: 84.6 x10_2/uL
- KIDNEY_L [3]: 1 g
- KIDNEY_R [3]: 0.9 g
- KIDNEY_TOTAL [3]: 1.9 g
- LIVER [3]: 7.6 g
- A/G [3]: 1.8
- ALP [3]: 979.2 IU/L
- ALT [3]: 64.4 IU/L
- AST [3]: 196.8 IU/L
- BUN [3]: 12.4 mg/dL
- CRE [3]: 0.4 mg/dL
- Ca [3]: 10.4 mg/dL
- Cl [3]: 103.2 meq/L
- DBIL [3]: 0.1 mg/dL
- GLC [3]: 174.6 mg/dL
- IP [3]: 7.5 mg/dL
- K [3]: 4 meq/L
- LDH [3]: 316.8 IU/L
- Na [3]: 140.4 meq/L
- PL [3]: 135.8 mg/dL
- RALB [3]: 3.4 g/dL
- TBIL [3]: 0.2 mg/dL
- TC [3]: 80.6 mg/dL
- TG [3]: 59.4 mg/dL
- TP [3]: 5.2 g/dL
- gamma-GTP [3]: 1.6 IU/L
- TERMINAL_BW [4]: 200.4 g
- TERMINAL_BW [5]: 195.1 g
- APTT [4]: 21.4 s
- Bas [4]: 1%
- Eos [4]: 1%
- Fbg [4]: 153.6 mg/dL
- Hb [4]: 17.4 g/dL
- Ht [4]: 49%
- Lym [4]: 76%
- MCH [4]: 21.1 pg
- MCHC [4]: 35.6%
- MCV [4]: 59.2 fL
- Mono [4]: 4.4%
- Neu [4]: 17.4%
- PT [4]: 19.5 s
- Plat [4]: 126.6 x10_4/uL
- RBC [4]: 827 x10_4/ul
- Ret [4]: 1.6%
- WBC [4]: 117.4 x10_2/uL
- APTT [5]: 87.2 s
- Bas [5]: 1%
- Eos [5]: 0%
- Fbg [5]: 66 mg/dL
- Hb [5]: 16.7 g/dL
- Ht [5]: 48.8%
- Lym [5]: 26%
- MCH [5]: 20.7 pg
- MCHC [5]: 34.2%
- MCV [5]: 60.5 fL
- Mono [5]: 7%
- Neu [5]: 65%
- PT [5]: 63.4 s
- Plat [5]: 112.1 x10_4/uL
- RBC [5]: 807 x10_4/ul
- Ret [5]: 3.6%
- WBC [5]: 108.1 x10_2/uL
- KIDNEY_L [4]: 0.9 g
- KIDNEY_R [4]: 0.9 g
- KIDNEY_TOTAL [4]: 1.8 g
- KIDNEY_L [5]: 1.2 g
- KIDNEY_R [5]: 1.2 g
- KIDNEY_TOTAL [5]: 2.4 g
- LIVER [4]: 4.6 g
- LIVER [5]: 2.7 g
- A/G [4]: 2
- ALP [4]: 1514 IU/L
- ALT [4]: 160.2 IU/L
- AST [4]: 315.6 IU/L
- BUN [4]: 12.6 mg/dL
- CRE [4]: 0.4 mg/dL
- Ca [4]: 9.6 mg/dL
- Cl [4]: 104.2 meq/L
- DBIL [4]: 0.7 mg/dL
- GLC [4]: 140.4 mg/dL
- IP [4]: 7 mg/dL
- K [4]: 3.9 meq/L
- LDH [4]: 465.4 IU/L
- Na [4]: 138.6 meq/L
- PL [4]: 171 mg/dL
- RALB [4]: 2.9 g/dL
- TBIL [4]: 0.9 mg/dL
- TC [4]: 109 mg/dL
- TG [4]: 27.4 mg/dL
- TP [4]: 4.4 g/dL
- gamma-GTP [4]: 9.2 IU/L
- A/G [5]: 2.8
- ALP [5]: 1357 IU/L
- ALT [5]: 206 IU/L
- AST [5]: 748 IU/L
- BUN [5]: 47 mg/dL
- CRE [5]: 0.7 mg/dL
- Ca [5]: 9.4 mg/dL
- Cl [5]: 90 meq/L
- DBIL [5]: 4.2 mg/dL
- GLC [5]: 61 mg/dL
- IP [5]: 9.2 mg/dL
- K [5]: 4.5 meq/L
- LDH [5]: 983 IU/L
- Na [5]: 130 meq/L
- PL [5]: 245 mg/dL
- RALB [5]: 2.2 g/dL
- TBIL [5]: 5.1 mg/dL
- TC [5]: 231 mg/dL
- TG [5]: 88 mg/dL
- TP [5]: 3 g/dL
- gamma-GTP [5]: 16 IU/L
